{"source": "patent US9709557B2", "about": "“Anthraquinone based near IR emitting compounds and uses thereof” (LIFE TECHNOLOGIES CORPORATION, priority 2008, dated 2017)", "key": {"Live Jurkat cells [1]": {"tested_on": "Live Jurkat cells", "assay": "DNA staining of live cells and cell cycle analysis using flow cytometry (Examples 42, 43)", "assay_type": "cell-based, human", "method": "Live Jurkat cells are suspended at 5×10^5 cells/ml in each RPMI media with 10% FBS. Compound 19 is added to each of one mL cell suspensions at concentrations 5 μM, 10 μM, and 20 μM, and then incubated at 37° C. for 30 minutes while protected from light. Cells are run through the Becton Dickinson (BD) LSRII Flow Cytometer. Forward Scatter (FS) vs Side Scatter (SS) dual parameter plot is used to gate main cell population. Fluorescence is collected using […]: the 488 nm excitation laser with 780/60 bandpass emission filter, and using the 633 nm excitation laser with 780/60 bandpass emission filters, collecting 10,000 events at flow rate of ˜200 events/second. The data is further analyzed using MODFIT LT Flow Cytometry Modeling Software from Verity Software House, Inc. to look at ratio of G2/G1 and the % CV of G1 phase. […] Typical DNA content cell cycle histograms indicate G0G1 phase, S phase, and G2M phase, as obtained on the live cell gate, with all concentrations of the compound.\nLive Jurkat cells suspended in RPMI media+10% FBS were stained with 5 μM, 10 μM, and 20 μM Compound 20 and analyzed with flow cytometry, as described in Example 42."}, "HeLa and U2OS cells": {"tested_on": "HeLa and U2OS cells", "assay_type": "cell-based", "method": "HeLa and U2OS cells were stained with DRAQ5, Hoechst 33342, mitoxantrone, and Compound 9 over a range of concentrations to evaluate the effect of the tested DNA stains on cell proliferation over time. HeLa and U2OS cells were plated at 3000 cells/well and allowed to recover overnight before proceeding with dye incubations. Cells were incubated with 0, 1, 5 or 10 μM Compound 9, Hoechst 33342, mitoxantrone, and DRAQ5 for 30 minutes at culture conditions in DPBS with glucose, washed and then placed back into media at culture conditions. Plates were stained with 100 nM YOYO-1 (Invitrogen Corporation) before being fixed and stained with 1:1000 Hoechst 33342 (total cell number) at 24, 48 and 72 hours post dye incubation. Cells were imaged with the ArrayScan VTI immediately following staining and fixation. Data obtained were from repetitions of 4 wells/condition with 10 images taken per well."}, "Live Jurkat cells [2]": {"tested_on": "Live Jurkat cells", "assay": "Comparison of DNA stains on cell viability (Example 44)", "assay_type": "cell-based", "settings": "for % Dead Cells: ethidium homodimer-1", "method": "Live Jurkat cells are suspended at 5×10^5 cells/ml in complete RPMI media with 10% FBS. Four aliquots of 10 ml each of the cell suspension are made. A final concentration of 5 μM Hoechst 33342 (Invitrogen Corporation) is added to one aliquot, a final concentration of 5 μM DRAQ5 (Biostatus Limited, UK) is added to one aliquot, a final concentration of 5 μM Compound 9 is added to one aliquot, and one aliquot remains untreated as a control. All four aliquots are placed in a 37° C. waterbath for 30 minutes in protected from light. After the incubation, all cell suspensions are centrifuged, the cells are pelleted and the supernatant discarded. To each aliquot, 5 ml media is added. Four culture flasks are prepared by adding 35 ml media to each. One 5 ml aliquot of cells is added to one flask for each on the four cell suspensions aliquots. The flasks are placed in a 37° C. incubator with 5% CO2 in the dark for 72 hours. Each flask of cells is then gently mixed and cell suspension is removed for testing. The cell concentration and image is performed using the Cellometer instrument from Nexcelom. Percentage and absolute cell counts of live and dead cells for each treatment are determined using the LIVE/DEAD Viability/Cytotoxicity Kit (Invitrogen Corporation, Carlsbad, Calif.) with COUNTBRIGHT Absolute Counting Beads (Invitrogen Corporation). This involves adding one ml cell suspension to a 12×75 mm test tube and adding 2 μl of a 50 μM calcein AM solution to identify living cells and 4 μl of a 2 mM ethidium homodimer-1 solution to identify dead cells. The cell suspension is mixed and incubated for 20 minutes at room temperature protected from light. After the end of the incubation, 50 μl of well mixed COUNTBRIGHT absolute counting beads are added to each test tube. Each sample is run through the Becton Dickinson (BD) LSRII Flow Cytometer. Forward Scatter (FS) versus Side Scatter (SS) dual parameter plot is used to gate main cell population, and a separate gate is made around the bead population. Fluorescence is collected using 488 nm excitation laser with 530/30 bandpass and 610/20 bandpass emission filters. Markers on a dual parameter plot of calcein fluorescence versus ethidium homodimer-1 fluorescence is used to obtain percent of cells which are living and dead, as well as number of cell events recorded. By using the COUNTBRIGHT absolute counting beads assay, the absolute number of living and dead cells is calculated by using the equation: A/B×C/D=concentration of cells/μL (A=number of cell events, B=number of bead events, C=assigned bead count, D=volume of the sample in μl)."}, "Jurkat cells": {"tested_on": "Jurkat cells", "assay": "Comparison of DNA stains for staining live cells, post-sort viability and growth (Example 45)", "assay_type": "cell-based", "settings": "5 μM", "method": "Jurkat cells were suspended at 5×10^5 cells/ml in complete RPMI media with 10% FBS and stained with either 5 μM Compound 9, 5 μM Hoechst 33342, or 5 μM DRAQ5 for 30 minutes at 37° C. protected from light. A control sample was also prepared with no dye treatment. Cells were washed and resuspended at 1×10^7 cells/ml in Complete RPMI+10% FBS media for sorting. Approximately 2 million Jurkat cells were sorted for each treatment by gating on the main cell population by scatter using a BD FACS Aria cell sorter. Cells were washed and plated at 1×10^5 cells/ml in complete media and grown at 37 C with 5% CO2. Cell Viability was assayed using the LIVE/DEAD Viability/Cytotoxicity Kit at 1, 2, and 3 days post sort (as described in Example 44). Brightfield images of cell growth after 8 days cell growth were collected. […] The percent of live cells decreased similarly in both Compound 9 and Hoechst 33342 treatments."}, "[3]": {"settings": "20 μM, RPMI media+10% FBS, blue 488 laser, 780/60 emission"}, "[4]": {"settings": "20 μM, RPMI media+10% FBS, red 633 nm laser, 780/60 emission"}, "[5]": {"settings": "5 μM dye 30 min 37° C., then 72 hours culture"}}}
{"smiles": "CN(C)CCNC(=O)CNc1ccc(O)c2c1C(=O)c1c(N)ccc(O)c1C2=O", "note": "[Compound 19]", "values": [{"measurement": "% CV of G1-phase", "setting": "Live Jurkat cells [1]; [3]", "result": 8.0, "unit": "%"}, {"measurement": "G2/G1 ratio", "setting": "Live Jurkat cells [1]; [3]", "result": 1.86}, {"measurement": "% CV of G1-phase", "setting": "Live Jurkat cells [1]; [4]", "result": 6.43, "unit": "%"}, {"measurement": "G2/G1 ratio", "setting": "Live Jurkat cells [1]; [4]", "result": 1.83}, {"measurement": "% CV of G1-phase", "setting": "Live Jurkat cells [1]; 5, 10, 20 μM, MODFIT analysis", "result": "< 8", "unit": "%"}]}
{"smiles": "CN(C)CCNC(=O)CNc1ccc(N)c2c1C(=O)c1c(O)ccc(O)c1C2=O", "note": "[Compound 20]", "values": [{"measurement": "% CV of G1-phase", "setting": "Live Jurkat cells [1]; [4]", "result": 6.41, "unit": "%"}, {"measurement": "G2/G1 ratio", "setting": "Live Jurkat cells [1]; [4]", "result": 1.84}]}
{"smiles": "CN(C)CCNc1ccc(O)c2c1C(=O)c1c(O)ccc(NCCN(C)C)c1C2=O", "note": "[DRAQ5]", "values": [{"measurement": "membrane permeability indicated by YOYO-1", "setting": "HeLa and U2OS cells", "result": "high membrane permeability"}, {"measurement": "% Dead Cells", "setting": "Live Jurkat cells [2]; [5]", "result": 95.7, "unit": "%"}]}
{"smiles": "CCOc1ccc(-c2nc3ccc(-c4nc5ccc(N6CCN(C)CC6)cc5[nH]4)cc3[nH]2)cc1", "note": "[Hoechst 33342]", "values": [{"measurement": "post-sort viability / cytotoxicity", "setting": "Jurkat cells; 30 min 37° C., sorted, 1, 2 and 3 days post sort", "result": "very similar in post-sort viability, but less than non-stained control cells"}, {"measurement": "cell growth after sort", "setting": "Jurkat cells; day 3 and 8 days post sort", "result": "beginning to divide again"}, {"measurement": "Cell Count (Cellometer)", "setting": "Live Jurkat cells [2]; [5]", "result": "2.6 × 10^5 cells/mL"}, {"measurement": "Cell Count (Flow Cytommetry)", "setting": "Live Jurkat cells [2]; [5]", "result": "0.9 × 10^5 cells/mL"}, {"measurement": "% Living Cells", "setting": "Live Jurkat cells [2]; 5 μM dye 30 min 37° C., then 72 hours culture, calcein AM", "result": 57.7, "unit": "%"}, {"measurement": "% Dead Cells", "setting": "Live Jurkat cells [2]; [5]", "result": 39.3, "unit": "%"}, {"measurement": "effect of treatment on cell viability", "setting": "Live Jurkat cells [2]; 5 μM, 72 hours", "result": "maintained a majority of cells as living"}]}
